Data published in patent US20080194467A1, “CANCER TREATMENT METHODS USING CADHERIN ANTAGONISTS IN COMBINATION WITH ANTICANCER AGENTS” (ADHEREX TECHNOLOGIES, INC., priority 2006, published 2008).
Read-outs that look alike come from different tables or passages of the source. Bridge positions count the residues as written; N and C are the ends.

Key:
[1] = test system: human melanoma cell line DM738; type: in vivo
A375 tumors = test: In vivo combination therapy of A375 tumors, ADH-1 with temozolomide; conditions: ADH-1 100 mg/kg i.p. qdx8; TMZ 100 mg/kg p.o. qdx5; administered separately
Experimental: 100 mg/kg of TMZ was administered p.o. on a qdx5 schedule starting on Day 4. For the combination groups, TMZ was always administered 1 hour after the ADH-1 dose. A375 tumors were resistant to both TMZ and ADH-1 when administered separately.

[2] = test system: Ovarian Tumor Cell Line A2780; conditions: paclitaxel 30 mg/kg i.v. qodx5; ADH-1 100 mg/kg i.p. Day 1 then b.i.d.x20
Experimental: In this set of experiments, 100 mg/kg of ADH-1 was administered i.p. as a single dose on Day 1 and then […].) for the duration of the treatment period. 30 mg/kg paclitaxel was administered i.v. on a qodx5 schedule starting on Day 2. For the combination groups, paclitaxel was always administered 5 minutes after the morning ADH-1 dose.

[3] = test system: human melanoma xenografts (DM366 and DM738); test: Isolated limb infusion (ILI) of melphalan with or without systemic ADH-1 in nude rats bearing human melanoma xenografts; type: in vivo; conditions: day 60 after 15 minute regional infusion into the hind limb

Molecule: N—Ac-CHAVC-NH2 (disulfide 1-5 (inferred)) [ADH-1]
- anti-tumor response ([1]; DM738 tumors, single ILI of melphalan and/or systemic ADH-1, compared to vehicle control): no detectable anti-tumor response
- tumor response to treatment (resistance) (A375 tumors): resistant

Molecule: CC(=O)O[C@H]1C(=O)[C@@]2(C)[C@H]([C@H](OC(=O)c3ccccc3)[C@]3(O)C[C@H](OC(=O)[C@H](O)[C@@H](NC(=O)c4ccccc4)c4ccccc4)C(C)=C1C3(C)C)[C@]1(OC(C)=O)CO[C@@H]1C[C@@H]2O [paclitaxel]
- complete cures out of 10 animals [2]: 10%
- delay in tumor growth [2]: transient delay in tumor growth

Molecule: N[C@@H](Cc1ccc(N(CCCl)CCCl)cc1)C(=O)O [melphalan]
- anti-tumor response ([1]; rat, in vivo): no detectable anti-tumor response
- increase in tumor volume [3]: 439.4%
